Measurements from patent EP2323645B1, “USE OF LOW-DOSE LOCAL ANAESTHETIC OR DERIVATIVES THEREOF FOR THERAPY OF CHRONIC PAIN, ESPECIALLY MIGRAINE” (priority 2008, dated 2010).

System: therapieresistenter chronischer Sensibilitätsstörungen an Armen und Händen mit Verlust der rohen Kraft
Assay: Treatment of therapy-resistant chronic sensory disturbances of arms and hands with loss of strength
Format: in vivo, Patienten

CCN(CC)CC(=O)Nc1c(C)cccc1C [Lidocain]
Remission der Kraftlosigkeit (2 to 4 deep paravertebral injections, middle or lower cervical spine, 0,1 Gew.-%): Spontane Remission | Remission der Sensibilitätsstörungen (after further identical treatment sessions): vollständig nach zwei bis vier weiteren identisch reproduzierten Behandlungssitzungen
